In brackets after ≈: the same amount, converted by molar mass.
What was measured:
[1] = Solubility of APIs and THEDES in PBS, excess added, 24 h stirring, UV spectroscopy; type: physicochemical; conditions: aqueous buffer, thermodynamic from solid; PBS (pH 7.4), 37 °C
Description: The solubility studies were made with the pure APIs and THEDES. For performing these assays were used a PBS solution, and was added an excess of API and THEDES to this solution, place at 37 °C, under stirring for 24 h, for simulate physiological conditions. The determination of the API solubility was made by UV spectroscopy in 1 mL quartz cuvettes, using a Lambda 35 UV/VIS spectrometer (PerkinElmer, Villepinte, France) and the PerkinElmer UV WinLab software (PerkinElmer, Villepinte, France). […] The calibration curve was made using the respective APIs as standard for quantification.

[2] = Permeability and diffusion in Franz diffusion cells through PES-U membrane
[3] = solutions in culture media RPMI

| SMILES | solubility at 24 h [1] | Papp at 180 min [2] | pH [3] |
| --- | --- | --- | --- |
| CC[C@@H](CO)NCCN[C@@H](CC)CO [Ethambutol, ethambutol] | 4640 ± 70 µg/mL (≈ 22.7 mM) | 819 ± 30.6 ×10⁻⁶ cm/s | 6.21 |
| N=C(N)NCCC[C@H](N)C(=O)O [L-Arginine, L-arginine] |  |  | 10.43 |

Reference: PMC6337512 (Molecules, 2018)
